The subject of one assay is CDKs. The note with it: Current Opinion in Pharmacology, 2003(3): 362-370; cited from earlier work.
The target of another assay is T1, CDK9/CycT (Homo sapiens, UniProt P50750).
T1 construct: host or cells: Sf9 insect cells, baculovirus
Put plainly: In vitro kinase inhibition assay. The format is biochemical. The settings on record: 1 μM ATP, 33P FlashPlate assay. On the procedure: IC50 profiles of the compounds according to general Formula I or Ia of the present invention can be determined for cyclin-dependent kinases CDK2/CycA, CDK4/CycD1, CDK6/CycD1 and CDK9/CycT in enzymatic kinase inhibition assays in vitro. IC50 values as obtained in these assays are used for evaluating the specific selectivity and potency of the compounds with respect to CDK9 inhibition.
Compounds are used as 1×10^−2 M stock solutions in 100% DMSO, 100 μl each in column 2 of three 96-well V-shaped microtiterplates (in the following, said plates are referred to as “master plates”). […]
For the determination of inhibitory profiles, the following 4 protein kinases are used: CDK2/CycA, CDK4/CycD1, CDK6/CycD1 and CDK9/CycT. […] The purity of each kinase is determined by SDS-PAGE/silver staining and the identity of each kinase is verified by western blot analysis with kinase specific antibodies or by mass spectroscopy. […]
Reaction mixtures are incubated at 30° C. for 80 minutes. […] Incorporation of ^33P is determined with a microplate scintillation counter (Microbeta, Wallac).
The median value of the counts in column 1 (n=8) of each assay plate is defined as “low control”. This value reflects unspecific binding of radioactivity to the plate in the absence of a protein kinase but in the presence of the substrate. […]

For a further assay, the system named is TNF α. Put plainly: In vitro human whole blood assay (cytokine inhibition). The format is cell-based. The settings on record: for TNF α levels reduced: human whole blood. On the procedure:
[…]. For this purpose, human heparinised whole blood from healthy donors was diluted 1:5 with medium (RPMI 1640, e.g. ATCC #30-2001, supplemented with 4.5 g/L glucose, 4 mM L-glutamine, pyruvate, 1250 U sodium-heparin and 1% Penicillin/Streptomycin), incubated with the anti-inflammatory compound or solvent for 30-60 minutes and then stimulated with 20 ng/ml to 1 μg/ml LPS or SEB for 3 to 48 hours. Supernatants were harvested and analysed for cytokine content, e.g. by ELISA.

The test system of the next assay is TNFα. Put plainly: LPS in vivo assay (model of cytokine repression in vivo). On the set-up: species or system mice. The settings on record: 30 mg/kg single p.o. dose 30 min prior to LPS; blood serum 90 min after LPS; ELISA; FIG. 3. On the procedure:
For the LPS induced model of septic shock, mice receive an intraperitoneal (i.p.) injection of 30 μg bacterial Lipopolysaccharide (LPS; L2630 SIGMA) in saline. Said LPS-mediated initiation of the inflammatory signalling cascade results in increasing blood serum concentrations of cytokines such as e.g. TNFα, IL-6 and IL1β. Blood can be taken from these animals at defined time points. Thereafter, serum will be separated and the samples can be stored at −80° C. until cytokine concentrations are measured using commercial ELISA assays. (A L Moreira et al., Braz J Med Biol Res 1997; 30:1199-1207).
Wildtype mice (strain C3HeB/FeJ) (age, sex and weight matched) were injected with 30 μg LPS (SIGMA) intraperitoneally. 90 minutes after LPS administration, these animals were anaesthetized with 0.1 ml/10 g bodyweight Ketamine-Rompun (50/20 mg/ml) and blood for serum preparation was taken via cardiac puncture.
Pharmacological treatment groups (n=4) of LPS mice received per os (p.o.) injections of CDK-inhibiting compounds or the vehicle (negative control), respectively. […]
Serum concentrations of TNF alpha and IL6 within the samples were measured by using commercial ELISA Kits (Natutec) according to the manufacturers instructions. […]

Assay [1] relates to LPS induced THP-1 macrophages. Nature of the assay: In vitro THP-1 assay (LPS-induced cytokine expression). It is filed as cell-based, human. On the procedure:
The human THP-1 cell line can be utilized as an in vitro model of cytokine expression as mediated by Lipopolysaccharide (LPS) or Tumor Necrosis Factorα [TNFα].
Monocytic THP-1 cells (ATCC; TIB-202) can be differentiated into macrophage-like cells expressing pro-inflammatory cytokines like TNFα, IL6 and IL10 upon induction with LPS or by TNFα (autocrine induction) itself.
THP-1 cells are grown in modified RPMI-1640 medium (ATCC, Cat. No. 30-2001) supplemented with 10% FCS and 1% Pen/Strep. For cytokine inhibition assays, cells are seeded at a density of 5×10^5 cells/ml into 6-well plates in standard growth medium supplemented with 100 ng/ml PMA (Sigma, P1585) to induce differentiation into macrophage-like cells. After 24 hours, the medium is replaced with standard growth medium (without PMA) and the cells are incubated for another 48 hours to complete differentiation.
After 72 h of differentiation, the medium is replaced with serum free growth medium, and CDK-inhibiting compounds as well as reference compounds such as positive and negative controls, each dissolved in DMSO are added at concentrations ranging from 0.5 to 5 μM (final concentration of DMSO in the well is 0.1%). Cells are incubated for 60 min with compounds prior to stimulation with 100 ng/ml LPS (Sigma, L2630) for another 4-48 hours. Supernatants are collected and assayed immediately for cytokine expression, e.g. for TNFα, IL-6 and IL-1β using commercially available sandwich ELISA assays (eBioscience, Cat. No 88-7346, 88-7066, 88-7010) or kept frozen at […] until evaluation.
Concentrations of TNFα, IL6 and IL1β within the cell culture supernatants are measured by using commercial ELISA Kits (eBioscience) according to the manufacturer's instructions.
Compound #133 was administered to differentiated THP-1 cells in triplicates as described above (see section 2.). After 60 min of pre-incubation with test or reference compound (a p38 inhibitor and an IKK-inhibitor, respectively) alone, cells were stimulated with LPS. […]

T1 sequence (P50750 whole entry): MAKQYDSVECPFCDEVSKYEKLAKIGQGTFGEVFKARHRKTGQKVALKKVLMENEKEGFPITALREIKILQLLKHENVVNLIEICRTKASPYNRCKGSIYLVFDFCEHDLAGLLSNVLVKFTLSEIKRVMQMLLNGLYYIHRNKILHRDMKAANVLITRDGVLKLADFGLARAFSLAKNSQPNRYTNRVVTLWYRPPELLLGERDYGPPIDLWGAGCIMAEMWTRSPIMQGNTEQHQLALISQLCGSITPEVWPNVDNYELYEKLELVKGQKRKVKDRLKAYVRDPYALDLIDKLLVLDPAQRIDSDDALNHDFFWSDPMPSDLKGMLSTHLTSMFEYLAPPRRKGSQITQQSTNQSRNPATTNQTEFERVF
T1 sequence (O60563 whole entry partner): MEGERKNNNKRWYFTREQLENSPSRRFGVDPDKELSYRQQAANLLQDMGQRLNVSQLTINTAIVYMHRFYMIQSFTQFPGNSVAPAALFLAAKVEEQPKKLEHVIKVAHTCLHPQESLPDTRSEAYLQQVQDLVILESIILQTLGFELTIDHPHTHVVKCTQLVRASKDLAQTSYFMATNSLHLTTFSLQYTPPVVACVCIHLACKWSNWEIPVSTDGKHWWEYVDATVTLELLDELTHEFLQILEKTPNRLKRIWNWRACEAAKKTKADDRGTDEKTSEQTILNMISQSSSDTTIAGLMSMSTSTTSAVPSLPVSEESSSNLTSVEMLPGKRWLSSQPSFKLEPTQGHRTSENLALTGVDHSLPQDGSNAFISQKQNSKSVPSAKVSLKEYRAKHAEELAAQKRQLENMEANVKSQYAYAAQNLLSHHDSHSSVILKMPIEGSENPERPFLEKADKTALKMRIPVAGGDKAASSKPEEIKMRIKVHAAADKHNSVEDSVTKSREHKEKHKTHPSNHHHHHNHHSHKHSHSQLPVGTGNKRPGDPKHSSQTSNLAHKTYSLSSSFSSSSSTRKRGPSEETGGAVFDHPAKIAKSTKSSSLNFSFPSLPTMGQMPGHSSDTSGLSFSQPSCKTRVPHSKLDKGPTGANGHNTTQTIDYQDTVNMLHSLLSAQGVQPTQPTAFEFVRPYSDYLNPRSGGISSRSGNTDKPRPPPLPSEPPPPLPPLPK

In the case of `CC[C@H](CO)Nc1nc(NCc2ccccc2)c2ncn(C(C)C)c2n1` [roscovitine], in the assay with CDKs, the “inhibitory activity against CDKs 4 and 6” value is on record as “no inhibitory activity”; the “selectivity for a specific CDK” value was “greater selectivity for CDKs 1, 2 and 5”.
Consider `CN1CC[C@H](c2c(O)cc(O)c3c(=O)cc(-c4ccccc4Cl)oc23)[C@H](O)C1` [Flavopiridol], for which, in the assay with CDKs, the “selectivity for a specific CDK” value is “not particularly selective for a specific CDK”.
Take `CCn1cnc2c(Nc3cccc(Cl)c3)nc(N[C@@H]3CCCC[C@@H]3N)nc21` [CGP74514A]: in the assay on CDKs, the “inhibitory activity against CDKs 4 and 6” value is “no inhibitory activity”; the “selectivity for a specific CDK” value is “greater selectivity for CDKs 1, 2 and 5”.
In the case of purvanolols, in the assay with CDKs, the “inhibitory activity against CDKs 4 and 6” value is “no inhibitory activity”; the “selectivity for a specific CDK” value is “greater selectivity for CDKs 1, 2 and 5”.
With `COc1ccccc1-c1ccnc(Nc2cccc(S(C)(=O)=O)c2)n1` [Compound #133], the IC50 was 37.6 nM on CDK9/CycT and below 3000 nM in the assay with TNF α (Homo sapiens, deduced from the % reduction data). Besides, the “TNF α levels reduced” value in the assay with TNF α (0.3 μM) is given as 15%; in the assay on TNF α (3 μM) it was 60%; with TNF α (10 μM), 85%; in the assay on TNF α (30 μM), 94%. Besides, the “reduction of LPS-induced TNFα level (signalα signal) compared to the DMSO vehicle control” value with TNFα is 50%. Also, the “signalα signal compared to the DMSO (vehicle control)” value in assay [1] (at each concentration, FIG. 4) is on record as “significantly reduced”. Moreover, the “effect on TNFα and IL6 protein concentration in the cell supernatant versus vehicle (DMSO)” value in assay [1] (differentiated THP-1 cells, 60 min pre-incubation, LPS 4-48 h) was “significant inhibitory effect”. Besides, the “reduction of LPS-induced cytokine levels (TNFα, IL6, IL1β)” value in assay [1] (differentiated THP-1 cells, LPS 100 ng/ml, supernatant ELISA, FIG. 4) was “up to 100%”.

As usually defined, the IC50 is the concentration needed to halve the response being measured. Read a low IC50 as greater potency in that assay.

The values above are taken from US20080153822A1, “Methods of treating pain” (priority 2006, published 2008).
